Structures are written as SMILES.

The target in this assay is HPK1 (Homo sapiens (Human), UniProt Q92918). Kind of assay: HPK1 kinase activity inhibition test (ADP-Glo, luminescence). Format: biochemical. The following applies: HPK1 5 nM, ATP 2 μM, read-out: IC50, inhibitory effects of compounds on HPK1 kinase activity. On the procedure:
1. HPK1 Kinase Activity Inhibition Test
The kinase activity of HPK1 is manifested as activity of autophosphorylation and phosphorylation of downstream substrates. In the process of autophosphorylation, additional substrates are not required, and ATP is consumed to generate ADP. The amount of the product was measured by ADP-Glo reagent and luminescence method to reflect kinase activity.
Test compounds: compounds prepared in the examples of this application.
Prepare compound stock solution: dissolve the compound to be tested in 100% DMSO to make a 10 mM stock solution;
Prepare 4× Kinase Reaction Buffer:
Prepare 2×HPK1 Kinase Solution:
Dilute the stock solution of the compound to be tested by 5 times with […], make a 4-fold equal dilution in a 96-well dilution plate, add 1 μL of the compound to 49 µL of kinase reaction buffer, and shake on a microplate shaker for 20 minutes. Transfer 2 μL of […] kinase solution to 384 reaction plate, add 1 μL of the test compound to the 384 reaction plate (Greiner, 784075), centrifuge for 1 minute (1000 rpm/min), incubate at 25° C. for 10 minutes. Transfer […] of the 4×ATP mixture to a 384 reaction plate, centrifuge for 1 minute (1000 rpm/mm), and incubate at 25° C. for 60 minutes. In the reaction system, the final concentration of DMSO was […]. Transfer 4 μL of ADP-Glo to a 384 reaction plate, centrifuge for 1 minute (1000 rpm/min), and incubate at 25° C. for 40 minutes. Transfer 8 μL detection solution to a 384 reaction plate, centrifuge for 1 minute (1000 rpm/min), and incubate at 25° C. for 40 minutes. The […] signal was read using a Biotek multi-function plate reader, and the […] (half inhibitory concentration) of the compound was obtained using a four-coefficient nonlinear fitting formula.
A general note: ADP-Glo first removes unused ATP, then detects ADP through luciferase.

Sequence of HPK1 (Q92918 whole entry): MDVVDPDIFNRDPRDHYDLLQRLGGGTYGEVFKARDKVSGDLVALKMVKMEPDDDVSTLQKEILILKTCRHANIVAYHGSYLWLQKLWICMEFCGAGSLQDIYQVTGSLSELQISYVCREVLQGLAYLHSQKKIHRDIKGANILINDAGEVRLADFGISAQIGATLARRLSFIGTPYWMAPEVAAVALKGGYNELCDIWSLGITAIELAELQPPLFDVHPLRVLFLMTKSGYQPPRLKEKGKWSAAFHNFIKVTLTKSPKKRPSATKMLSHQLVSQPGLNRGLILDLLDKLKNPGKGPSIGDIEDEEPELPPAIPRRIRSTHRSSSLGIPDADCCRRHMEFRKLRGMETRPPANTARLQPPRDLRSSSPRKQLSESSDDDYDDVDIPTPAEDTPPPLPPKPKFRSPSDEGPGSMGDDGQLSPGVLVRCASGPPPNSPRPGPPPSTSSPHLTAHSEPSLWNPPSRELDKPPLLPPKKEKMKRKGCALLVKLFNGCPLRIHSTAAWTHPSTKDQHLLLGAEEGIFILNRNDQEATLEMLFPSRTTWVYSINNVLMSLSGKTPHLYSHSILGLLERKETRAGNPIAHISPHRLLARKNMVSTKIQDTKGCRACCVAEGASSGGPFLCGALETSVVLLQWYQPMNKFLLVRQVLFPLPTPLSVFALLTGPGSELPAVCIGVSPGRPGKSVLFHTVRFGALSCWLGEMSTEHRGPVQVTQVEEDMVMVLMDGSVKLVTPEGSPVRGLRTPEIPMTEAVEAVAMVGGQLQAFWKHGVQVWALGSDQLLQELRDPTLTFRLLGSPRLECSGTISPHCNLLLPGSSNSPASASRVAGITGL

In general, IC50 refers to the concentration that gives 50% inhibition. Turning to `COc1cccc(F)c1-n1nc2c(-c3ccc4c(c3)CN(CC(F)F)CC4)n[nH]c2cc1=O` [Compound 166, 3-(2-(2,2-difluoroethyl)-1,2,3,4-tetrahydroisoquinolin-7-yl)-5-(2-fluoro-6-methoxyphenyl)-1H-pyrazolo[4,3-c]pyridazin-6(5H)-one], the 50% inhibitory concentration (IC50) lay within 50 to 500 nM.
Under `Cc1cccc(F)c1-n1nc2c(-c3ccc(N4CCN5C(=O)OCC5C4)cc3)n[nH]c2cc1=O` (stereo not shown) [Compound 122, 7-(4-(5-(2-fluoro-6-methylphenyl)-6-oxo-5,6-dihydro-1H-pyrazolo[4,3-c]pyridazin-3-yl)phenyl)tetrahydro-1H-oxazolo[3,4-a]pyrazin-3(5H)-one] stands ≤ 50 nM.
As for `COc1ccncc1-n1nc2c(-c3ccc(N4CCN(C)CC4)cc3)n[nH]c2cc1=O` [Compound 48, 5-(4-methoxypyrid-3-yl)-3-(4-(4-methylpiperazin-1-yl)phenyl)-1H-pyrazolo[4,3-c]pyridazin-6(5H)-one], the IC50 is 50 to 500 nM.
Take `COc1cc(C#N)cc(F)c1-n1nc2c(-c3cccc(N4CC5CCC(C4)N5C)c3)n[nH]c2cc1=O` [Compound 203, 3-fluoro-5-methoxy-4-(3-(3-(8-methyl-3,8-diazabicyclo[3.2.1]octan-3-yl)phenyl)-6-oxo-1H-pyrazolo[4,3-c]pyridazin-5(6H)-yl)benzonitrile]: the IC50 is ≤ 50 nM.
In the case of `COc1cccc(F)c1-n1nc2c(-c3cccc(N4CCC(N)CC4)c3)n[nH]c2cc1=O` [Compound 205, 3-(3-(4-aminopiperidin-1-yl)phenyl)-5-(2-fluoro-6-methoxyphenyl)-1H-pyrazolo[4,3-c]pyridazin-6(5H)-one], the half-inhibitory concentration (IC50) was ≤ 50 nM.
With `CCc1cccc(F)c1-n1nc2c(-c3cnc(N4CCN(C)CC4)nc3)n[nH]c2cc1=O` [Compound 110, 5-(2-ethyl-6-fluorophenyl)-3-(2-(4-methylpiperazin-1-yl)pyrimidin-5-yl)-1H-pyrazolo[4,3-c]pyridazin-6(5H)-one], the IC50 was in the range of 50 to 500 nM.
Under `Cc1cccc(F)c1-n1nc2c(-c3ccc4c(c3)C(=O)N(C)CC4)n[nH]c2cc1=O` [Compound 183] stands 500 to 2000 nM.
In the case of `Cc1cccc(F)c1-n1nc2c(-c3cccc(N4CCN(C)CC4)c3F)n[nH]c2cc1=O` [Compound 207, 3-(2-fluoro-3-(4-methylpiperazin-1-yl)phenyl)-5-(2-fluoro-6-methylphenyl)-1H-pyrazolo[4,3-c]pyridazin-6(5H)-one], the IC50 lay in the range of 500 to 2000 nM.
Under `Cc1cccc(F)c1-n1nc2c(-c3ccc4c(c3)CN(C)C4)n[nH]c2cc1=O` [Compound 197, 5-(2-fluoro-6-methylphenyl)-3-(2-methylisoindolin-5-yl)-1H-pyrazolo[4,3-c]pyridazin-6(5H)-one] stands ≤ 50 nM.
Regarding `Cc1cccc(F)c1-n1nc2c(-c3ccc4c(c3)CN(C)[C@@H](CO)C4)n[nH]c2cc1=O` [Compound 179, (R)-5-(2-fluoro-6-methylphenyl)-3-(3-(hydroxymethyl)-2-methyl-1,2,3,4-tetrahydroisoquinolin-7-yl)-1H-pyrazolo[4,3-c]pyridazin-6(5H)-one], the 50% inhibitory concentration (IC50) lay in the range of 50 to 500 nM.
As for `Cc1cccc(F)c1-n1nc2c(-c3ccc4c(c3)CN(C)C(C)(C)C4)n[nH]c2cc1=O` [Compound 178, 5-(2-fluoro-6-methylphenyl)-3-(2,3,3-trimethyl-1,2,3,4-tetrahydroisoquinolin-7-yl)-1H-pyrazolo[4,3-c]pyridazin-6(5H)-one], the figure is 50 to 500 nM; as for `Cc1cccc(F)c1-n1nc2c(-c3cnc4c(c3)CN(C)CC4)n[nH]c2cc1=O` [Compound 187, 5-(2-fluoro-6-methylphenyl)-3-(6-methyl-5,6,7,8-tetrahydro-1,6-naphthyridin-3-yl)-1H-pyrazolo[4,3-c]pyridazin-6(5H)-one], 50 to 500 nM.
Under `COc1cnccc1-n1nc2c(-c3ccc(N4CCN(C)CC4)cc3)n[nH]c2cc1=O` [Compound 153, 5-(3-methoxypyrid-4-yl)-3-(4-(4-methylpiperazin-1-yl)phenyl)-1H-pyrazolo[4,3-c]pyridazin-6(5H)-one] stands 50 to 500 nM.

Values taken from US20230322789A1, “PYRAZOLOPYRIDAZINONE COMPOUND, AND PHARMACEUTICAL COMPOSITION AND USE THEREOF” (BroadenBio Co., Ltd., priority 2020, published 2023).
